Tested on: Respiratory Syncytial Virus
Assay: In vitro screening for activity against RSV (tetrazolium-based colorimetric assay, protection against viral cytopathology)
Type: cell-based
Description: The percent protection against cytopathology caused by viruses (antiviral activity or EC50) achieved by tested compounds and their cytotoxicity (CC50) are both calculated from dose-response curves. The selectivity of the antiviral effect is represented by the selectivity index (SI), calculated by dividing the CC50 (cytotoxic dose for 50% of the cells) by the EC50 (antiviral activity for 50% of the cells). The tables in the above experimental part list the category to which each of the prepared compounds belong: Compounds belonging to activity category “A” have a pEC50 (−log of EC50 when expressed in molar units) equal to or more than 7. Compounds belonging to activity category “B” have a pEC50 value between 6 and 7.
Automated tetrazolium-based colorimetric assays were used for determination of EC50 and CC50 of test compounds. Flat-bottom, 96-well plastic microtiter trays were filled with 180 μl of Eagle's Basal Medium, supplemented with 5% FCS (0% for FLU) and 20 mM Hepes buffer. Subsequently, stock solutions (7.8× final test concentration) of compounds were added in 45 μl volumes to a series of triplicate wells so as to allow simultaneous evaluation of their effects on virus- and mock-infected cells. Five five-fold dilutions were made directly in the microtiter trays using a robot system. Untreated virus controls, and HeLa cell controls were included in each test. Approximately 100 TCID50 of Respiratory Syncytial Virus was added to two of the three rows in a volume of 50 μl. The same volume of medium was added to the third row to measure the cytotoxicity of the compounds at the same concentrations as those used to measure the antiviral activity. After two hours of incubation, a suspension (4×10^5 cells/ml) of HeLa cells was added to all wells in a volume of 50 μl. The cultures were incubated at 37° C. in a 5% CO2 atmosphere. Seven days after infection the cytotoxicity and the antiviral activity was examined spectrophotometrically. To each well of the microtiter tray, 25 μl of a solution of MTT (3-(4,5-dimethylthiazol-2-yl)-2,5-diphenyltetrazolium bromide) was added. The trays were further incubated at 37° C. for 2 hours, after which the medium was removed from each cup. Solubilization of the formazan crystals was achieved by adding 100 μl 2-propanol. Complete dissolution of the formazan crystals were obtained after the trays have been placed on a plate shaker for 10 min. Finally, the absorbances were read in an eight-channel computer-controlled photometer (Multiskan MCC, Flow Laboratories) at two wavelengths (540 and 690 nm). The absorbance measured at 690 nm was automatically subtracted from the absorbance at 540 nm, so as to eliminate the effects of non-specific absorption.
The percent protection against cytopathology caused by viruses (antiviral activity or EC50) achieved by tested compounds and their cytotoxicity (CC50) were both calculated from dose-response curves. The selectivity of the antiviral effect is represented by the selectivity index (SI), calculated by dividing the CC50 (cytotoxic dose for 50% of the cells) by the EC50 (antiviral activity for 50% of the cells).

[1] = Table 1, RSV in HeLa cells, MTT, seven days after infection, pEC50 = -log of EC50 in molar units
[2] = Table 2, RSV in HeLa cells, MTT, seven days after infection, pEC50 = -log of EC50 in molar units
[3] = Table 4, RSV in HeLa cells, MTT, seven days after infection, pEC50 = -log of EC50 in molar units
[4] = Table 6, numeric activity values, pEC50 (−log of EC50 in molar units)
[5] = Table 5b, RSV in HeLa cells, MTT, seven days after infection, pEC50 = -log of EC50 in molar units
[6] = Table 3, RSV in HeLa cells, MTT, seven days after infection, pEC50 = -log of EC50 in molar units

Structure (SMILES): Cc1ccc(O)c(Cn2c(N)nc3ccc(CNc4ccc(Br)c(C(F)(F)F)c4)cc32)n1 [Compound 62]
- Activity [1]: 7.3

Structure (SMILES): Cc1ccc(O)c(Cn2c(N)nc3cc(CNc4cccc(Cl)c4)ccc32)n1 [Compound 122]
- Activity [2]: <4.0

Structure (SMILES): CCOc1cccc(NCc2ccc3nc(N)n(Cc4nc(C)ccc4O)c3c2)c1 [Compound 24]
- Activity [1]: 7.9

Structure (SMILES): Cc1ccc(O)c(Cn2cnc3ccc(/C=C/C#N)cc32)n1 [Compound 189]
- Activity [3]: 4.8

Structure (SMILES): Cc1ccc(O)c(Cn2c(N)nc3ccc(CCC#N)cc32)n1 [Compound 198]
- Activity (Table 5a, RSV in HeLa cells, MTT, seven days after infection, pEC50 = -log of EC50 in molar units): 6.8

Structure (SMILES): Cc1ccc(O)c(Cn2cnc3ccc(NC(=O)Cc4ccccn4)cc32)n1 [Compound 276]
- Activity [4]: <4.0

Structure (SMILES): Cc1ccc(O)c(Cn2c(N)nc3ccc(CNc4cccc(SC(F)(F)F)c4)cc32)n1 [Compound 30]
- Activity [1]: 7.8

Structure (SMILES): Cc1ccc(O)c(Cn2cnc3ccc(NC(=O)c4ccccc4)cc32)n1 [Compound 190]
- Activity [3]: <4.0

Structure (SMILES): Cc1ccc(O)c(Cn2cnc3cc(CNCCc4cccn4C)ccc32)n1 [Compound 243]
- Activity [4]: 4.2

Structure (SMILES): Cc1ccc(O)c(Cn2c(N)nc3ccc(CNc4cccc(Cl)c4)cc32)n1 [Compound 5]
- Activity [1]: 8.5

Structure (SMILES): Cc1ccc(O)c(Cn2c(N)nc3ccc(CNc4cccc(Cc5ccccc5)c4)cc32)n1 [Compound 79]
- Activity [1]: 6.4

Structure (SMILES): Cc1ccc(O)c(Cn2c(N)nc3ccc(CNc4ccccc4CO)cc32)n1 [Compound 11]
- Activity [1]: 8.4

Structure (SMILES): Cc1ccc(CCCO)c(NCc2ccc3nc(N)n(Cc4cccc5cccnc45)c3c2)c1 [Compound 208]
- Activity [5]: 7.9

Structure (SMILES): Cc1ccc(O)c(Cn2cnc3cc(NC(=O)Cc4ccccc4)ccc32)n1 [Compound 244]
- Activity [4]: 4.2

Structure (SMILES): Cc1ccc(O)c(Cn2cnc3cc(CNc4ccccc4)ccc32)n1 [Compound 296]
- Activity [4]: <4.0

Structure (SMILES): Cc1ccc(O)c(Cn2cnc3cc(CNC4CCNCC4)ccc32)n1.Cl [Compound 262]
- Activity [4]: <4.0

Structure (SMILES): CCOC(=O)c1ccc(NCc2ccc3nc(N)n(Cc4nc(C)ccc4O)c3c2)c(O)c1 [Compound 14]
- Activity [1]: 8.3

Structure (SMILES): Cc1ccc(O)c(Cn2c(N)nc3ccc(CNc4ccccc4CCO)cc32)n1 [Compound 81]
- Activity [1]: 9.4

Structure (SMILES): Cc1cccc(C(=O)Nc2ccc3c(c2)ncn3Cc2nc(C)ccc2O)c1 [Compound 242]
- Activity [4]: 4.2

Structure (SMILES): Cc1ccc(O)c(Cn2c(N)nc3ccc(CNc4ccc(C)c(F)c4)cc32)n1 [Compound 60]
- Activity [1]: 7.3

Structure (SMILES): CC(=O)O.COc1ccccc1NCc1ccc2nc(N)n(Cc3nc(C)ccc3O)c2c1 [Compound 7]
- Activity [1]: 8.5

Structure (SMILES): Cc1ccc(O)c(Cn2c(N)nc3ccc(CNc4cccc(Cl)c4C)cc32)n1 [Compound 29]
- Activity [1]: 7.8

Structure (SMILES): Cc1cccc(N(Cc2ccc3nc(N)n(Cc4nc(C)ccc4O)c3c2)Cc2c[nH]cn2)c1 [Compound 176]
- Activity [6]: 8.3

Structure (SMILES): Cc1ccc(NCc2ccc3nc(N)n(Cc4nc(C)ccc4O)c3c2)cc1 [Compound 67]
- Activity [1]: 7.3

Structure (SMILES): Cc1ccc(O)c(Cn2c(N)nc3ccc(CNc4ccc(C)c(C)c4)cc32)n1 [Compound 23]
- Activity [1]: 7.9

Structure (SMILES): Cc1cccc(NCc2ccc3nc(N)n(Cc4nc(C)ccc4O)c3c2)c1 [Compound 1, 2-[2-Amino-6-(mtolylamino-methyl)-benzoimidazol-1-ylmethyl]-6-methyl-pyridin-3-ol]
- Activity [1]: 8.6

Structure (SMILES): Cc1ccc(O)c(Cn2c(N)nc3ccc(CNc4cccc5cccnc45)cc32)n1 [Compound 44]
- Activity [1]: 7.6

Structure (SMILES): CC(=O)Nc1ccc(NCc2ccc3nc(N)n(Cc4nc(C)ccc4O)c3c2)cc1 [Compound 53]
- Activity [1]: 7.5

Structure (SMILES): Cc1cccc(NCc2ccc3c(c2)nc(N)n3Cc2nc(C)ccc2O)c1 [Compound 120]
- Activity [2]: 6.4

Structure (SMILES): Cc1ccc(O)c(Cn2c(N)nc3cc(CNc4cccc(C)c4C)ccc32)n1 [Compound 119]
- Activity [2]: 6.4

Structure (SMILES): Cc1ccc(O)c(Cn2c(N)nc3ccc(CNc4ccc(F)c(F)c4)cc32)n1 [Compound 55]
- Activity [1]: 7.4

Structure (SMILES): Cc1ccc(O)c(Cn2c(N)nc3ccc(CNc4ccccc4C(F)(F)F)cc32)n1 [Compound 48]
- Activity [1]: 7.6

Structure (SMILES): Cc1ccc(O)c(Cn2c(N)nc3ccc(CNc4cc(Cl)c(O)c(Cl)c4)cc32)n1 [Compound 72]
- Activity [1]: 7.1

Structure (SMILES): CCCCNS(=O)(=O)c1cccc(NCc2ccc3nc(N)n(Cc4nc(C)ccc4O)c3c2)c1 [Compound 47]
- Activity [1]: 7.6

Structure (SMILES): CCc1cccc(NCc2ccc3c(c2)nc(N)n3Cc2nc(C)ccc2O)c1 [Compound 125]
- Activity [2]: <4.0

Structure (SMILES): Cc1ccc(O)c(Cn2cnc3cc(CO)ccc32)n1 [Compound 246]
- Activity [4]: <4.0

Structure (SMILES): Cc1ccc(CCCO)c(NCc2ccc3nc(N)n(Cc4cccc5c4ncn5C)c3c2)c1 [Compound 235]
- Activity [5]: <4

Structure (SMILES): Cc1ccc(CCCO)c(NCc2ccc3nc(N)n(Cc4cccc(Br)n4)c3c2)c1 [Compound 212]
- Activity [5]: 7.5

Structure (SMILES): Cc1ccc(O)c(Cn2c(N)nc3cc(CNc4cccc(Br)c4)ccc32)n1 [Compound 126]
- Activity [2]: <4.0

Structure (SMILES): Cc1cccc(NCc2ccc3c(c2)ncn3Cc2nc(C)ccc2O)c1 [Compound 265]
- Activity [4]: <4.0

Structure (SMILES): Cc1ccc(O)c(Cn2c(N)nc3cc(CNc4cccc(F)c4)ccc32)n1 [Compound 124]
- Activity [2]: <4.0

Structure (SMILES): Cc1ccc(O)c(Cn2c(N)nc3ccc(CNc4ccc(Br)c(C)c4)cc32)n1 [Compound 56]
- Activity [1]: 7.4

Structure (SMILES): Cc1ccc(O)c(Cn2c(N)nc3ccc(CNc4ccccc4F)cc32)n1 [Compound 40]
- Activity [1]: 7.7

Structure (SMILES): CNC(=O)CCN(Cc1ccc2nc(N)n(Cc3nc(C)ccc3O)c2c1)c1cccc(C)c1.Cl [Compound 172]
- Activity [6]: 8.8

Structure (SMILES): Cc1ccc(O)c(Cn2cnc3cc(NC(=O)c4ccccc4)ccc32)n1 [Compound 266]
- Activity [4]: <4.0

Structure (SMILES): COc1ccc(C)nc1Cn1c(N)nc2ccc(CNc3cc(C)ccc3CCCO)cc21 [Compound 234]
- Activity [5]: <4

Structure (SMILES): Cc1ccc(O)c(Cn2cnc3cc(CNc4cc(Cl)cc(Cl)c4)ccc32)n1 [Compound 290]
- Activity [4]: <4.0

Structure (SMILES): COC(=O)c1cc(NCc2ccc3nc(N)n(Cc4nc(C)ccc4O)c3c2)cc(C(=O)OC)c1 [Compound 64]
- Activity [1]: 7.3

Structure (SMILES): Cc1ccc(O)c(Cn2c(N)nc3ccc(CNc4cc(C(=O)O)cc(C(F)(F)F)c4)cc32)n1 [Compound 78]
- Activity [1]: 6.6

Structure (SMILES): Cc1cccc(N(Cc2ccc3nc(N)n(Cc4nc(C)ccc4O)c3c2)CC(O)CO)c1 (centres unmarked) [Compound 180]
- Activity [6]: 9.3

Structure (SMILES): Cc1cccc(N(CCOCCO)Cc2ccc3nc(N)n(Cc4nc(C)ccc4O)c3c2)c1.Cl [Compound 171]
- Activity [6]: 8.9

Structure (SMILES): CCOC(=O)c1ccccc1NCc1ccc2nc(N)n(Cc3nc(C)ccc3O)c2c1 [Compound 68]
- Activity [1]: 7.2

Structure (SMILES): COc1ccc(NCc2ccc3nc(N)n(Cc4nc(C)ccc4O)c3c2)cc1O [Compound 75]
- Activity [1]: 7

Structure (SMILES): Cc1ccc(O)c(Cn2c(N)nc3ccc(CNc4cc(C(F)(F)F)cc(C(F)(F)F)c4)cc32)n1 [Compound 74]
- Activity [1]: 7.1

Structure (SMILES): Cc1ccc(O)c(Cn2c(N)nc3ccc(CNc4ccccc4C#N)cc32)n1 [Compound 25]
- Activity [1]: 7.9

Structure (SMILES): CC(=O)c1cccc(NCc2ccc3nc(N)n(Cc4nc(C)ccc4O)c3c2)c1 [Compound 42]
- Activity [1]: 7.6

Structure (SMILES): CC(=O)O.CCc1ccccc1NCc1ccc2nc(N)n(Cc3nc(C)ccc3O)c2c1 [Compound 12]
- Activity [1]: 8.4

Structure (SMILES): Cc1cc(C)cc(NCc2ccc3ncn(Cc4nc(C)ccc4O)c3c2)c1 [Compound 184]
- Activity [3]: 6.7

Structure (SMILES): Cc1ccc(O)c(Cn2c(N)nc3ccc(CNc4cc(OCC(F)(F)F)cc(OCC(F)(F)F)c4)cc32)n1 [Compound 80]
- Activity [1]: 6.2

Structure (SMILES): CCc1cc(Br)ccc1NCc1ccc2nc(N)n(Cc3nc(C)ccc3O)c2c1 [Compound 52]
- Activity [1]: 7.5

Structure (SMILES): Cc1ccc(O)c(Cn2c(N)nc3ccc(CNc4ccccc4C(C)(C)C)cc32)n1 [Compound 70]
- Activity [1]: 7.2

Structure (SMILES): COCCNCc1ccc2c(c1)ncn2Cc1nc(C)ccc1O [Compound 269]
- Activity [4]: <4.0

Source: US8044073B2, “Aminobenzimidazoles and benzimidazoles as inhibitors of respiratory syncytial virus replication” (Tibotec Pharmaceuticals, priority 2003, dated 2011)
